Data from patent US20190322632A1, “HRI ACTIVATORS USEFUL FOR THE TREATMENT OF CARDIOMETABOLIC DISEASES” (UNIVERSITAT DE BARCELONA, priority 2016, published 2019).

Key:
[1] = system: mice fed a high-fat diet (HFD); test: Glucose tolerance test in mice fed a high-fat diet; type: in vivo; settings: HFD three weeks, 70 mg kg^−1 day^−1 i.p. daily for the last week, FIG. 7
From the text: Data are presented as the mean±SD (n=6 per group). *p<0.05 vs. mice fed a standard diet (CT). #p<0.05 vs. mice fed a HFD. G: glucose.
T2DM is characterized by glucose intolerance, which is contributed to by peripheral (muscle, fat, and liver) insulin resistance as well as islet […] dysfunction (cf. Andrikopoulos S. et al., “Evaluating the glucose tolerance test in mice”, Am. J. Physiol. Endocrinol. Metab., 2008, vol. 295, pp. E1323-32). The glucose tolerance test (GTT) is used in clinical practice and research to identify individuals with impaired glucose tolerance by assessing the disposal of a glucose load. It is important to acknowledge that the GTT is the only means of identifying impaired glucose tolerance, which is considered a prediabetic state (cf. Andrikopoulos S. et al., ibid). The standard presentation of results from GTTs is a description of blood glucose levels over time after the glucose administration. Generally, a time course of absolute glucose levels is presented. When using diabetic or insulin-resistant models (such as the HFD-fed mouse), a time course of absolute glucose levels should still be presented along with a calculation of the AUC above baseline glucose. In this assay, the effect of the BTdCPU compound on glucose tolerance in mice fed a high-fat diet (HFD) was examined. […]

human Huh-7 hepatocytes = test: Palmitate-induced triglyceride accumulation in hepatocytes (Oil Red O staining); type: cell-based; settings: Huh-7 cells, 24 h, 0.75 mmol/L palmitate plus 10 μmol/L compound; FIG. 5
Experimental: To examine the effects of HRI activators on triglyceride accumulation and insulin signaling in hepatocytes, the N,N′-diarylurea BTdCPU was used. HRI is a kinase that phosphorylates eIF2α at its Ser 51 residue to execute protein synthesis regulation and thereby HRI activators cause the phosphorylation of eIF2α as previously described (Chen T. et al., ibid). First, the effect of BTdCPU on human Huh-7 hepatocytes exposed to the saturated fatty acid palmitate was explored. Huh-7 cells were incubated for 24 h with BSA (Control, CT), 0.75 mmol/L palmitate (Pal) conjugated with BSA or 0.75 mmol/L palmitate plus 10 μmol/L BTdCPU (Pal+BTdCPU). Then, they were stained with Oil Red O that allows selective detection of neutral lipids (primarily triglyceride and cholesterol esters) within Huh-7 cells.

mice fed a HFD = test: HFD-induced steatosis in mice (ORO and H&E liver staining, hepatic triglyceride levels); type: in vivo; settings: HFD three weeks, 70 mg kg^−1 day^−1 i.p. daily for the last week
From the text: FIG. 8. (A) Oil Red O and eosin-hematoxylin (H&E) staining of livers of mice fed a standard chow (CT), a HFD for three weeks (HFD) or a HFD for three weeks plus BTdCPU during the last week (HFD+BTdCPU). (B) Liver triglyceride levels. Data are presented as the mean±SD (n=6 per group). *p<0.05 vs. mice fed a standard diet (CT). ^#p<0.05 vs. mice fed a HFD. G: glucose. TG: triglyceride.
Inventors examined whether the treatment with an HRI activator (BTdCPU) prevented the development of steatosis induced by a HFD. Histological analysis of a liver biopsy remains the gold standard for assessing the degree of steatosis. ORO staining and eosin-hematoxylin (H&E) staining of liver sections were performed. Mice fed a standard chow and half of the mice fed the HFD received one daily i.p. administration of DMSO (vehicle) for the last week. The rest of the mice fed the HFD received one daily i.p. administration of BTdCPU (70 mg kg^−1 day^−1) for the last week. […] Finally, hepatic lipids were extracted and hepatic triglyceride levels were assessed by using a commercially available kit (TR0100, Sigma). […] Overall, these findings indicate that HRI activation prevents HFD-induced steatosis.

FGF21 = FGF21 expression in hepatocytes (quantitative real-time RT-PCR); type: cell-based, human; settings: Huh-7 hepatocytes, 24 h, 10 μM; FIG. 9
Experimental: Human Huh-7 hepatocytes were incubated for 24 h in the absence (Control, CT) or in the presence of compounds (10 μM). Assessment by quantitative real-time RT-PCR of FGF21. Data are presented as the mean±SD (n=4 per group). ***p<0.001 and **p<0.01 vs CT. ^###p<0.001, ^##p<0.01 and ^#p<0.05 vs BTCtFPU. ^††p<0.01 and ^†p<0.05 vs BTdCPU. BTCtFPU=1-(benzo[d][1,2,3]thiadiazol-6-yl)-3-(4-chloro-3-(trifluoromethyl)phenyl)urea (compound (3) in Chen T. et al., ibid.).

Akt = test: Insulin signalling in hepatocytes (insulin-stimulated Akt phosphorylation, immunoblot); type: cell-based, human; settings: Huh-7 cells, 24 h, 0.75 mmol/L palmitate plus 10 μmol/L compound, 100 nmol/L insulin last 10 min; FIG. 6
Experimental: (B). When indicated (+), cells were incubated with 100 nmol/L insulin (I) for the last 10 min. Data are presented as the mean±SD (n=4 per group). ***p<0.001 and *p<0.05 vs. control cells not exposed to insulin. ^###p<0.001 and ^##p<0.01 vs. insulin-stimulated control cells. ^554 \\p<0.001 vs. insulin-stimulated cells incubated with palmitate. Ins: insulin.
Inventors examined the insulin signalling pathway by measuring insulin-stimulated Akt phosphorylation. Huh-7 cells were incubated for 24 h with BSA (Control, CT), 0.75 mmol/L palmitate (Pal) conjugated with BSA, or 0.75 mmol/L palmitate plus 10 μmol/L BTdCPU (Pal+BTdCPU). Immunoblot analyses of total and phosphorylated Akt was carried out.

O=C(Nc1ccc(Cl)c(Cl)c1)Nc1ccc2nnsc2c1 [BTdCPU, 1-(benzo[d][1,2,3]thiadiazol-6-yl)-3-(3,4-dichlorophenyl)urea]
glucose tolerance test AUC above baseline glucose [1]: prevented the increase in the AUC above baseline glucose | palmitate-induced triglyceride accumulation (Oil Red O staining) (human Huh-7 hepatocytes): accumulation was prevented | hepatic steatosis (ORO and H&E staining) (mice fed a HFD; FIG. 8A): hepatic steatosis was reversed | hepatic triglyceride levels (mice fed a HFD; FIG. 8B): increase was completely blunted | FGF21 expression compared with BTCtFPU (FGF21): significant higher increase than compound BTCtFPU | insulin-stimulated Akt phosphorylation (Akt): partially restored the reduction in insulin-stimulated Akt phosphorylation caused by palmitate
